Data on 44 compounds can be found in patent US4073935A, “Substituted propanol-(2)-derivatives and their nicotinic acid esters, and process for their preparation, and the use thereof as hypolipemic drugs” (Klinge Pharma GmbH & Co., priority 1974, dated 1978).

The structures appear in SMILES notation. Like-named read-outs stand apart in the source and are kept apart here.

In this assay the test system is serum lipids. Description: Lipid-lowering action in normolipemic rats. The class given is in vivo. The following applies: Rattus norvegicus, 72 h, 4 × 100 mg/kg oral over 3 days, male Wistar rats, vs controls, X ± Sx. How it is done: Lipid-lowering action was tested on groups of 10 male Wistar rats (Ivanovas-Kisslegg), weight 200-220 g, normolipemic, or ordinary ration ("ssniff" complete feed).
The test compounds were taken up in an aqueous solution of 0.25% agar and 0.85% NaCl and administered orally. After administration of 4 × 100 mg/kg over a period of 3 days, the animals were bled by cardiac puncture after privation of […] for 4 hours.^1
^1 H. Enomoto and R. Zschocke, 3rd Int. Symp. Atheroscler, Berlin 1973, Abstr. 238.
Serum lipids were determined with a Technicon autoanalyzer. Total cholesterol (TC) was tested by the Liebermann-Burchard reaction. Quantitative analysis for triglycerides (TG) was performed by Eggstein and Kreutz's enzyme method (Klin. Wschr. 44, 262, 1966), modified for autoanalyzer.
Lipid lowering effect is expressed as percent lowering of total cholesterol and triglycerides compared to controls.

[1] abbreviates: read-out: % Lowering TC (total cholesterol).
Setting [2] is: read-out: % Lowering TG (triglycerides).

Turning to `COC(=O)c1ccc(OCC(O)CNc2ccc(C(C)(C)C)cc2)cc1` (stereo not shown) [Compound 35], the inhibition in vivo at 100 mg/kg is, setting by setting: under setting [1], 51.9 ± 9.3%; under setting [2], 79.2 ± 9%.

For the compound `COC(=O)CCc1ccc(OCC(O)COc2ccc(C(C)(C)C)cc2)cc1` (stereo not shown) [Compound 22, 3-(4'-(2-methoxycarbonylethyl)-phenoxy)-1-(4'-tert.-butylphenoxy)-propanol-(2)], the inhibition in vivo at 100 mg/kg under setting [1] came out at 46.9 ± 11.4% and the inhibition in vivo at 100 mg/kg under setting [2] amounted to 79 ± 10.7%.

For `COC(=O)C=Cc1cccc(OCC(O)COc2ccc(Cl)cc2)c1` (stereo not shown) [Compound 14], the inhibition in vivo at 100 mg/kg runs as follows: under setting [1], 22.9 ± 5.2%; under setting [2], 64.8 ± 17.7%.

Consider `CC(C)(C)c1ccc(OCC(O)CNc2cccc(C(=O)O)c2)cc1` (stereo not shown) [Compound 71, 3-(3'-Carboxyphenylamino)-1-(4'-t-butylphenoxy)-propanol-(2)], for which the inhibition in vivo at 100 mg/kg is, setting by setting: under setting [1], 28.9 ± 9.5%; under setting [2], 58.4 ± 15.5%.

For `CC(C)OC(=O)c1ccc(OCC(O)COc2ccc(Cl)cc2)cc1` (stereo not shown) [Compound 5], the inhibition in vivo at 100 mg/kg runs as follows: under setting [1], 15.5 ± 14.7%; under setting [2], 54.6 ± 28.3%.

Turning to `O=C(CCc1ccc(OCC(O)COc2ccc(Cl)cc2)cc1)NO` (stereo not shown) [Compound 107], the inhibition in vivo at 100 mg/kg runs as follows: under setting [1], 49.6 ± 13.3%; under setting [2], 84.8 ± 4.1%.

Turning to `O=C(OCCO)c1ccc(OCC(O)CNc2ccc(Cl)cc2)cc1` (stereo not shown) [Compound 52], the inhibition in vivo at 100 mg/kg runs as follows: under setting [1], 50 ± 10%; under setting [2], 53.9 ± 13.3%.

Turning to `C=CCOC(=O)C=Cc1ccc(OCC(O)COc2ccc(Cl)cc2)cc1` (stereo not shown) [Compound 11], the inhibition in vivo at 100 mg/kg runs as follows: under setting [1], 76.1 ± 3.7%; under setting [2], 40.2 ± 10.3%.

`CCCOC(=O)c1ccc(OCC(O)COc2ccc(C(C)(C)C)cc2)cc1` (stereo not shown) [Compound 18]: the inhibition in vivo at 100 mg/kg is, setting by setting: under setting [1], 34.4 ± 6.9%; under setting [2], 68.3 ± 23.1%.

As for `CCCOC(=O)c1ccc(OCC(O)COc2ccc(Cl)cc2)cc1` (stereo not shown) [Compound 4], the inhibition in vivo at 100 mg/kg by setting is: under setting [1], 53 ± 7.5%; under setting [2], 74.2 ± 13.4%.

In the case of `O=C(C=Cc1ccc(OCC(O)COc2ccc(Cl)cc2)cc1)OCCO` (stereo not shown) [Compound 46], the inhibition in vivo at 100 mg/kg under setting [1] amounted to 32.3 ± 19.7% and the inhibition in vivo at 100 mg/kg under setting [2] stood at 69.5 ± 8.9%.

`COC(=O)C=Cc1ccc(OCC(O)CNc2ccc(C(C)(C)C)cc2)cc1` (stereo not shown) [Compound 37, 3-(4'-(2'-methoxycarbonylvinyl)-phenoxy)-1-(4'-t-butylphenylamino)-propanol-(2)]: the inhibition in vivo at 100 mg/kg under setting [1] turned out to be 32.8 ± 13.7% and the inhibition in vivo at 100 mg/kg under setting [2] is 71.9 ± 13.5%.

For the compound `CC(C)(C)c1ccc(OCC(O)COc2ccc(CCC(=O)O)cc2)cc1` (stereo not shown) [Compound 62, 3-4'-(2-Carboxyathyl)-phenoxy!-1-(4'-t-butylphenoxy)-propanol-(2)], the inhibition in vivo at 100 mg/kg under setting [1] worked out at 38.7 ± 15% and the inhibition in vivo at 100 mg/kg under setting [2] came to 91.9 ± 5%.

Consider `CCOC(=O)c1ccc(NCC(O)COc2ccc(Cl)cc2)cc1` (stereo not shown) [Compound 31], for which the inhibition in vivo at 100 mg/kg was 33.3 ± 17.6% under setting [1] and 63.6 ± 18.5% under setting [2].

For `COC(=O)c1cccc(OCC(O)COc2ccc(Cl)cc2)c1` (stereo not shown) [Compound 6], the inhibition in vivo at 100 mg/kg was 28.5 ± 10% under setting [1] and 78.1 ± 11.2% under setting [2].

With `COC(OC)c1ccc(OCC(O)CSc2ccc(Cl)cc2)cc1` (stereo not shown) [Compound 116], the inhibition in vivo at 100 mg/kg was 43.2 ± 9.8% under setting [1] and 74 ± 9.8% under setting [2].

On to `CCCOC(=O)C=Cc1ccc(OCC(O)COc2ccc(C(C)(C)C)cc2)cc1` (stereo not shown) [Compound 23], for which the inhibition in vivo at 100 mg/kg reads like this: under setting [1], 40.9 ± 9.3%; under setting [2], 77.9 ± 5.5%.

On to `O=C(NO)c1ccc(OCC(O)COc2ccc(Cl)cc2)cc1` (stereo not shown) [Compound 105], for which the inhibition in vivo at 100 mg/kg is, setting by setting: under setting [1], 29.8 ± 14.3%; under setting [2], 53.2 ± 11.2%.

For `O=C(OCCCl)c1ccc(OCC(O)COc2ccc(Cl)cc2)cc1` (stereo not shown) [Compound 82], the inhibition in vivo at 100 mg/kg was 53.9 ± 9.1% under setting [1] and 83.8 ± 6% under setting [2].

Regarding `O=C(O)c1ccc(OCC(O)CNc2ccc(Cl)cc2)cc1` (stereo not shown) [Compound 65, 3-(4'-Carboxyphenoxy)-1-(4'-chlorphenylamino)-propanol-(2)], the inhibition in vivo at 100 mg/kg runs as follows: under setting [1], 20.9 ± 13.7%; under setting [2], 72.9 ± 11.3%.

With `CCOC(OCC)c1ccc(OCC(O)COc2ccc(Cl)cc2)cc1` (stereo not shown) [Compound 110], the inhibition in vivo at 100 mg/kg under setting [1] turned out to be 32.1 ± 15.8% and the inhibition in vivo at 100 mg/kg under setting [2] amounted to 68 ± 6.5%.

Take `O=C(O)CCc1cccc(OCC(O)COc2ccc(Cl)cc2)c1` (stereo not shown) [Compound 58, 3-3'-(2-Carboxyathyl)-phenoxy!-1-(4'-chlorphenoxy)-propanol-(2)]: the inhibition in vivo at 100 mg/kg reads like this: under setting [1], 42.2 ± 5.6%; under setting [2], 71.3 ± 7.6%.

Take `O=C(O)c1cccc(OCC(O)COc2ccc(Cl)cc2)c1` (stereo not shown) [Compound 54, 3-(3'-Carboxyphenoxy)-1-(4'-chlorphenoxy)-propanol-(2)]: the inhibition in vivo at 100 mg/kg is, setting by setting: under setting [1], 28.7 ± 10.2%; under setting [2], 80 ± 11.4%.

With `CC(C)OC(=O)C=Cc1ccc(OCC(O)COc2ccc(Cl)cc2)cc1` (stereo not shown) [Compound 13], the inhibition in vivo at 100 mg/kg runs as follows: under setting [1], 50.4 ± 7.3%; under setting [2], 79.7 ± 10.4%.

In the case of `CC(C)(C)c1ccc(OCC(O)COc2ccc(C=CC(=O)OCCO)cc2)cc1` (stereo not shown) [Compound 50], the inhibition in vivo at 100 mg/kg reads like this: under setting [1], 49.3 ± 11.7%; under setting [2], 84.2 ± 5.4%.

Consider `CC(C)(C)c1ccc(OCC(O)CNc2ccc(C(=O)O)cc2)cc1` (stereo not shown) [Compound 70, 3-(4'-Carboxyphenylamino)-1-(4'-t-butylphenoxy)-propanol-(2)], for which the inhibition in vivo at 100 mg/kg under setting [1] is 33.3 ± 12.2% and the inhibition in vivo at 100 mg/kg under setting [2] turned out to be 78.1 ± 10.4%.

In the case of `CC(C)(C)c1ccc(OCC(O)COc2ccc(C(=O)OCCO)cc2)cc1` (stereo not shown) [Compound 48], the inhibition in vivo at 100 mg/kg runs as follows: under setting [1], 60.4 ± 6.7%; under setting [2], 85.5 ± 15.6%.

With `COC(=O)c1ccc(OCC(CSc2ccc(Cl)cc2)OC(=O)c2cccnc2)cc1` (stereo not shown) [Compound 104], the inhibition in vivo at 100 mg/kg by setting is: under setting [1], 48 ± 7.9%; under setting [2], 81.1 ± 5.6%.

On to `COCCOC(=O)c1ccc(OCC(O)COc2ccc(C(C)(C)C)cc2)cc1` (stereo not shown) [Compound 49], for which the inhibition in vivo at 100 mg/kg came to 33.1 ± 16.7% under setting [1] and 76.1 ± 14.6% under setting [2].

With `CC(C)OC(=O)c1ccc(OCC(O)COc2ccc(C(C)(C)C)cc2)cc1` (stereo not shown) [Compound 19], the inhibition in vivo at 100 mg/kg by setting is: under setting [1], 44.9 ± 8%; under setting [2], 72.9 ± 6.1%.

For the compound `COC(=O)c1ccc(OCC(O)CNc2ccc(Cl)cc2)cc1` (stereo not shown) [Compound 26, 3-(4'-methoxycarbonylphenoxy)-1-(4'-chlorophenylamino)-propanol-(2)], the inhibition in vivo at 100 mg/kg is, setting by setting: under setting [1], 25.8 ± 23.7%; under setting [2], 81 ± 5.2%.

Consider `C=CCOC(=O)c1ccc(OCC(O)COc2ccc(Cl)cc2)cc1` (stereo not shown) [Compound 3], for which the inhibition in vivo at 100 mg/kg under setting [1] came to 35.9 ± 18.1% and the inhibition in vivo at 100 mg/kg under setting [2] is 68.6 ± 11%.

As to `COC(OC)c1ccc(OCC(O)COc2ccc(C(C)(C)C)cc2)cc1` (stereo not shown) [Compound 113], the inhibition in vivo at 100 mg/kg was determined as 44.4 ± 11.2% under setting [1] and 84 ± 8.8% under setting [2].

With `CC(C)OC(=O)c1ccc(OCC(O)CNc2ccc(Cl)cc2)cc1` (stereo not shown) [Compound 28], the inhibition in vivo at 100 mg/kg is, setting by setting: under setting [1], 30.8 ± 9.7%; under setting [2], 64.6 ± 16.9%.

For `COC(=O)c1ccc(OCC(O)CSc2ccc(Cl)cc2)cc1` (stereo not shown) [Compound 38], the inhibition in vivo at 100 mg/kg reads like this: under setting [1], 12.3 ± 14.6%; under setting [2], 53 ± 17.6%.

`O=C(O)C=Cc1cccc(OCC(O)COc2ccc(Cl)cc2)c1` (stereo not shown) [Compound 57, 3-3'-(2-Carboxyvinyl)-phenoxy!-1-(4'-chlorphenoxy)-propanol-(2)]: the inhibition in vivo at 100 mg/kg stood at 28.4 ± 11.1% under setting [1] and 61.8 ± 10.9% under setting [2].

`COC(=O)C=Cc1ccc(OCC(O)CSc2ccc(Cl)cc2)cc1` (stereo not shown) [Compound 40, 3-(4'-(2-methoxycarbonylvinyl)-phenoxy)-1-(4'-chlorophenylmercapto)-propanol-(2)]: the inhibition in vivo at 100 mg/kg under setting [1] was found to be 9.6 ± 9.1% and the inhibition in vivo at 100 mg/kg under setting [2] stood at 59.4 ± 14.7%.

`CCCOC(=O)C=Cc1ccc(OCC(O)COc2ccc(Cl)cc2)cc1` (stereo not shown) [Compound 12]: the inhibition in vivo at 100 mg/kg is, setting by setting: under setting [1], 40.3 ± 10.8%; under setting [2], 67 ± 15.7%.

As for `O=C(O)c1ccc(OCC(O)CSc2ccc(Cl)cc2)cc1` (stereo not shown) [Compound 75, 3-(4'-Carboxyphenoxy)-1-(4'-chlorphenylmercapto)-propanol-(2)], the inhibition in vivo at 100 mg/kg under setting [1] was found to be 32.2 ± 8.7% and the inhibition in vivo at 100 mg/kg under setting [2] amounted to 55.8 ± 14.2%.

`CC(C)(C)c1ccc(NCC(O)COc2ccc(C=CC(=O)O)cc2)cc1` (stereo not shown) [Compound 74, 3-4'-(2-Carboxyvinyl)-phenoxy!-1-(4'-t-butylphenylamino)-propanol-(2)]: the inhibition in vivo at 100 mg/kg is, setting by setting: under setting [1], 50.7 ± 6.4%; under setting [2], 69.7 ± 9.6%.

For `COCCOC(=O)c1ccc(OCC(O)COc2ccc(Cl)cc2)cc1` (stereo not shown) [Compound 45], the inhibition in vivo at 100 mg/kg was determined as 51.7 ± 12.2% under setting [1] and 75.8 ± 17.1% under setting [2].

As for `COCCOC(=O)C=Cc1ccc(OCC(O)COc2ccc(Cl)cc2)cc1` (stereo not shown) [Compound 47], the inhibition in vivo at 100 mg/kg reads like this: under setting [1], 44.4 ± 18%; under setting [2], 57.8 ± 10.7%.

In the case of `CC(C)(C)c1ccc(OCC(O)COc2ccc(C(=O)O)cc2)cc1` (stereo not shown) [Compound 59, 3-(4'-Carboxyphenoxy)-1-(4'-t-butylphenoxy)-propanol-(2)], the inhibition in vivo at 100 mg/kg reads like this: under setting [1], 45.7 ± 14.3%; under setting [2], 66.7 ± 8.1%.

As to `O=C(C=Cc1ccc(OCC(O)COc2ccc(Cl)cc2)cc1)NO` (stereo not shown) [Compound 106, 3-(4'-(2-(n-hydroxycarbamoyl)-vinyl)-phenoxy)-1-(4'-chlorophenoxy)-propanol-(2)], the inhibition in vivo at 100 mg/kg under setting [1] was determined as 43.9 ± 19.4% and the inhibition in vivo at 100 mg/kg under setting [2] was 64.2 ± 17.1%.
